Measurements as given in patent US9373800B2, “Organic light emitting element having lithium—boron complex” (CANON KABUSHIKI KAISHA, priority 2014, dated 2016).

Experiment: Evaluation of stability to water (100 nm deposited film, water dropped, thickness step height meter)
Assay type: physicochemical
Conditions: for State of the film after water was dropped, After 1 min / State of the film after water was dropped, After 10 min: 100 nm film deposited on glass substrate, water dropped onto film, Alpha-Step; for State of the film after water was dropped, After 1 min: after 1 minute; for Dissolution of the film in water (text summary of Table 1): film soaked in water
Description: Water was dropped onto the films, and the states of the films were examined after 1 minute and 10 minutes with a thickness step height meter (Alpha-Step).

Row | SMILES | State of the film after water was dropped, After 1 min | State of the film after water was dropped, After 10 min | Dissolution of the film in water (text summary of Table 1)
1 | [Li+].c1cnn([B-](n2cccn2)(n2cccn2)n2cccn2)c1 [Comparative compound 3] | Partially dissolved | Dissolved | gradually dissolved
2 | [Cs+].[F-] [Comparative compound 2, cesium fluoride] | Dissolved | Dissolved | dissolved immediately
3 | [F-].[Li+] [Comparative compound 1, lithium fluoride] | Dissolved | Dissolved | dissolved immediately
